# Results taken from patent US9695155B2, “Herbicidal substituted pyrimidinyloxy benzene compounds” (E. I. DU PONT DE NEMOURS AND COMPANY, priority 2013, dated 2017).
# Assays:
# oilseed rape [1] = experiment: Test C preemergence; assay type: in vivo, Brassica napus; conditions: Brassica napus, pre-emergence
# How it was run: (§1)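 Sown in loam/sand → sprayed pre-emergence; or grown to 1–4 leaves in peat mix → sprayed post-emergence. Same solvent/surfactant formulation both ways. Greenhouse 13–15 d. Score 0–100 visual.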
# waterhemp = experiment: Test C postemergence; assay type: in vivo, Amaranthus rudis; conditions: Amaranthus tuberculatus, post-emergence
# How it was run: as §1
# barnyardgrass [2] = experiment: Test B flooded paddy test; assay type: in vivo, Echinochloa crus-galli; conditions: Echinochloa crus-galli; Flood, 250 g ai/ha; 0 to 100 scale where 0 is no effect and 100 is complete control; read-out: Plant response rating, Barnyardgrass
# How it was run: (§2)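 Greenhouse flooded-pot test: compounds dosed into 3 cm standing water over 2-leaf plants, flood held constant. Rated visually after 13–15 days on 0–100 (complete control = 100); a dash marks no test result.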
# oilseed rape [3] = experiment: Test C postemergence; assay type: in vivo, Brassica napus; conditions: Brassica napus, post-emergence
# How it was run: as §1
# wheat = experiment: Test A preemergence; assay type: in vivo, Triticum aestivum
# How it was run: (§3)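 Visual injury scored 0–100 (100 = complete control) against untreated controls about 10 days after treatment in a greenhouse. Test chemicals, formulated with surfactant in non-phytotoxic solvent, were sprayed on soil preemergence or on 2-10 cm, one- to two-leaf plants postemergence.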
# soybean = experiment: Test C postemergence; assay type: in vivo, Glycine max; conditions: Glycine max, post-emergence
# How it was run: as §1
# barnyardgrass [4] = experiment: Test C preemergence; assay type: in vivo, Echinochloa crus-galli; conditions: Echinochloa crus-galli, pre-emergence
# How it was run: as §1
# sedge, umbrella = experiment: Test B flooded paddy test; assay type: in vivo, Cyperus difformis; conditions: Cyperus difformis, Flood, 250 g ai/ha; 0 to 100 scale where 0 is no effect and 100 is complete control; read-out: Plant response rating, Sedge, Umbrella
# How it was run: as §2
# barnyardgrass [5] = experiment: Test C postemergence; assay type: in vivo, Echinochloa crus-galli; conditions: Echinochloa crus-galli, post-emergence
# How it was run: as §1
# corn = experiment: Test C preemergence; assay type: in vivo, Zea mays; conditions: Zea mays, pre-emergence
# How it was run: as §1
# giant foxtail = experiment: Test C preemergence; assay type: in vivo, Setaria faberii; conditions: Setaria faberi, pre-emergence
# How it was run: as §1
# velvetleaf [6] = experiment: Test C postemergence; assay type: in vivo, Abutilon theophrasti; conditions: Abutilon theophrasti, post-emergence
# How it was run: as §1
# velvetleaf [7] = experiment: Test A postemergence; assay type: in vivo, Abutilon theophrasti; conditions: Abutilon theophrasti, post-emergence, 240 h
# How it was run: as §3
# morningglory = experiment: Test A preemergence; assay type: in vivo, Ipomoea spp.
# How it was run: as §3
# large (Lg) crabgrass = experiment: Test C postemergence; assay type: in vivo, Digitaria sanguinalis; conditions: Digitaria sanguinalis, post-emergence
# How it was run: as §1
# [8] = 125 g ai/ha, 0 to 100 scale where 0 is no effect and 100 is complete control
smiles,measurement,setting,value
"N#Cc1cccc(Oc2ncc(Cl)cn2)c1-n1cc(C(F)(F)F)cn1 [Compound 58, 3-[(5-chloro-2-pyrimidinyl)oxy]-2-[4-(trifluoromethyl)-1H-pyrazol-1-yl]benzonitrile]",plant injury at 62 g/ha,"oilseed rape [1]; 62 g ai/ha, preemergence, scale 0 (no effect) to 100 (complete control), read-out: Oilseed Rape plant response rating",100%
same,plant injury at 125 g/ha,"oilseed rape [1]; 125 g ai/ha, preemergence, scale 0 (no effect) to 100 (complete control), read-out: Oilseed Rape plant response rating",100%
same,plant injury at 250 g/ha,"oilseed rape [1]; 250 g ai/ha, preemergence, scale 0 (no effect) to 100 (complete control), read-out: Oilseed Rape plant response rating",100%
same,plant injury at 31 g/ha,"oilseed rape [1]; Preemergence, 31 g ai/ha, scale 0 to 100, 0 no effect, 100 complete control, read-out: Plant response rating, Oilseed Rape",100%
same,pest or weed control at 125 g/ha,"waterhemp; 125 g ai/ha, postemergence, read-out: Plant response rating (0 to 100), Waterhemp",90%
same,pest or weed control at 250 g/ha,"waterhemp; 250 g ai/ha, postemergence, read-out: Plant response rating (0 to 100), Waterhemp",100%
same,pest or weed control at 31 g/ha,"waterhemp; Postemergence, 31 g ai/ha, scale 0 to 100 (0 no effect, 100 complete control), 13 to 15 days, read-out: Plant response rating, Waterhemp",85%
same,pest or weed control at 62 g/ha,"waterhemp; Postemergence, 62 g ai/ha, scale 0 to 100 (0 no effect, 100 complete control), read-out: Plant response rating, Waterhemp",90%
same,pest or weed control at 250 g/ha,barnyardgrass [2],80%
same,plant injury at 125 g/ha,"oilseed rape [3]; 125 g ai/ha, postemergence, read-out: Plant response rating (0 to 100), Oilseed Rape",85%
same,plant injury at 250 g/ha,"oilseed rape [3]; 250 g ai/ha, postemergence, read-out: Plant response rating (0 to 100), Oilseed Rape",85%
same,plant injury at 31 g/ha,"oilseed rape [3]; Postemergence, 31 g ai/ha, scale 0 to 100 (0 no effect, 100 complete control), 13 to 15 days, read-out: Plant response rating, Oilseed Rape",60%
same,plant injury at 62 g/ha,"oilseed rape [3]; Postemergence, 62 g ai/ha, scale 0 to 100 (0 no effect, 100 complete control), read-out: Plant response rating, Oilseed Rape",70%
same,"Plant response rating, Wheat",wheat; [8],60
same,plant injury at 500 g/ha,"wheat; Triticum aestivum, pre-emergence, 240 h, 500 g ai/ha, 0 to 100 scale, 0 no effect, 100 complete control, approx. 10 days, read-out: Wheat plant response rating",90%
same,"Soybean plant response rating (crop injury, 0-100 scale) at 125 g/ha","soybean; 125 g ai/ha, postemergence, read-out: Plant response rating (0 to 100), Soybean",98%
same,"Soybean plant response rating (crop injury, 0-100 scale) at 250 g/ha","soybean; 250 g ai/ha, postemergence",98%
same,"Soybean plant response rating (crop injury, 0-100 scale) at 31 g/ha","soybean; Postemergence, 31 g ai/ha, scale 0 to 100 (0 no effect, 100 complete control), 13 to 15 days",95%
same,"Soybean plant response rating (crop injury, 0-100 scale) at 62 g/ha","soybean; Postemergence, 62 g ai/ha, scale 0 to 100 (0 no effect, 100 complete control)",95%
same,pest or weed control at 62 g/ha,"barnyardgrass [4]; 62 g ai/ha, preemergence, scale 0 (no effect) to 100 (complete control), read-out: Barnyardgrass plant response rating",100%
same,pest or weed control at 125 g/ha,"barnyardgrass [4]; 125 g ai/ha, preemergence, scale 0 (no effect) to 100 (complete control), read-out: Barnyardgrass plant response rating",100%
same,pest or weed control at 250 g/ha,"barnyardgrass [4]; 250 g ai/ha, preemergence, scale 0 (no effect) to 100 (complete control), read-out: Barnyardgrass plant response rating",100%
same,pest or weed control at 31 g/ha,"barnyardgrass [4]; Preemergence, 31 g ai/ha, scale 0 to 100, 0 no effect, 100 complete control, read-out: Plant response rating, Barnyardgrass",98%
same,pest or weed control at 250 g/ha,"sedge, umbrella",90%
same,pest or weed control at 125 g/ha,"barnyardgrass [5]; 125 g ai/ha, postemergence, read-out: Plant response rating (0 to 100), Barnyardgrass",15%
same,pest or weed control at 250 g/ha,"barnyardgrass [5]; 250 g ai/ha, postemergence, read-out: Plant response rating (0 to 100), Barnyardgrass",75%
same,pest or weed control at 31 g/ha,"barnyardgrass [5]; Postemergence, 31 g ai/ha, scale 0 to 100 (0 no effect, 100 complete control), 13 to 15 days, read-out: Plant response rating, Barnyardgrass",5%
same,pest or weed control at 62 g/ha,"barnyardgrass [5]; Postemergence, 62 g ai/ha, scale 0 to 100 (0 no effect, 100 complete control), read-out: Plant response rating, Barnyardgrass",5%
same,plant injury at 62 g/ha,"corn; 62 g ai/ha, preemergence, scale 0 (no effect) to 100 (complete control), read-out: Corn plant response rating",90%
same,plant injury at 125 g/ha,"corn; 125 g ai/ha, preemergence, scale 0 (no effect) to 100 (complete control), read-out: Corn plant response rating",98%
same,plant injury at 250 g/ha,"corn; 250 g ai/ha, preemergence, scale 0 (no effect) to 100 (complete control), read-out: Corn plant response rating",98%
same,"Corn plant response rating (crop injury, 0 = no effect, 100 = complete kill) at 31 g/ha","corn; Preemergence, 31 g ai/ha, scale 0 to 100, 0 no effect, 100 complete control",60%
same,pest or weed control at 62 g/ha,"giant foxtail; 62 g ai/ha, preemergence, scale 0 (no effect) to 100 (complete control), read-out: Foxtail, Giant plant response rating",100%
same,pest or weed control at 125 g/ha,"giant foxtail; 125 g ai/ha, preemergence, scale 0 (no effect) to 100 (complete control), read-out: Foxtail, Giant plant response rating",100%
same,pest or weed control at 250 g/ha,"giant foxtail; 250 g ai/ha, preemergence, scale 0 (no effect) to 100 (complete control), read-out: Foxtail, Giant plant response rating",100%
same,pest or weed control at 31 g/ha,"giant foxtail; Preemergence, 31 g ai/ha, scale 0 to 100, 0 no effect, 100 complete control, read-out: Plant response rating, Foxtail, Giant",100%
same,pest or weed control at 125 g/ha,"velvetleaf [6]; 125 g ai/ha, postemergence, read-out: Plant response rating (0 to 100), Velvetleaf",60%
same,pest or weed control at 250 g/ha,"velvetleaf [6]; 250 g ai/ha, postemergence, read-out: Plant response rating (0 to 100), Velvetleaf",85%
same,pest or weed control at 31 g/ha,"velvetleaf [6]; Postemergence, 31 g ai/ha, scale 0 to 100 (0 no effect, 100 complete control), 13 to 15 days, read-out: Plant response rating, Velvetleaf",45%
same,pest or weed control at 62 g/ha,"velvetleaf [6]; Postemergence, 62 g ai/ha, scale 0 to 100 (0 no effect, 100 complete control), read-out: Plant response rating, Velvetleaf",50%
same,pest or weed control at 125 g/ha,"velvetleaf [7]; 125 g ai/ha, 0 to 100 scale where 0 is no effect and 100 is complete control, read-out: Plant response rating, Velvetleaf",100%
same,pest or weed control at 500 g/ha,"velvetleaf [7]; 500 g ai/ha, 0 to 100 scale, 0 no effect, 100 complete control, read-out: Plant response rating Velvetleaf",100%
same,"Plant response rating, Morningglory",morningglory; [8],100
same,pest or weed control at 500 g/ha,"morningglory; Ipomoea, pre-emergence, 240 h, 500 g ai/ha, 0 to 100 scale, 0 no effect, 100 complete control, approx. 10 days, read-out: Morningglory plant response rating",100%
same,pest or weed control at 125 g/ha,"large (Lg) crabgrass; 125 g ai/ha, postemergence, read-out: Plant response rating (0 to 100), Crabgrass, Large",50%
same,pest or weed control at 250 g/ha,"large (Lg) crabgrass; 250 g ai/ha, postemergence, read-out: Plant response rating (0 to 100), Crabgrass, Large",85%
same,pest or weed control at 31 g/ha,"large (Lg) crabgrass; Postemergence, 31 g ai/ha, scale 0 to 100 (0 no effect, 100 complete control), 13 to 15 days, read-out: Plant response rating, Crabgrass, Large",5%
same,pest or weed control at 62 g/ha,"large (Lg) crabgrass; Postemergence, 62 g ai/ha, scale 0 to 100 (0 no effect, 100 complete control), read-out: Plant response rating, Crabgrass, Large",20%
